Drawing on patent publication US20200339604A1, “PYRAZOLOPYRIMIDINE COMPOUNDS AS JAK INHIBITORS” (Genentech, Inc., priority 2018, published 2020), this text covers Ki and IC50 for 14 molecules.

For assay [1], the target named is T1, isolated recombinant JAK1 kinase domain (Homo sapiens, UniProt P23458).
T1 construct: isolated recombinant JAK1 and JAK2 kinase domain
Description: JAK enzyme assay, JAK1 kinase domain (Caliper LabChip). It counts as biochemical. The settings on record: 1.5 nM JAK1, ATP 25 μM, Morrison tight binding model. The protocol: (§1) JAK Enzyme Assays were Carried Out as Follows:
(§2) The activity of the isolated recombinant JAK1 and JAK2 kinase domain was measured by monitoring phosphorylation of a peptide derived from JAK3 ([…] fluorescently labeled on the N-terminus with 5-carboxyfluorescein) using the Caliper LabChip® technology (Caliper Life Sciences, Hopkinton, Mass.). To determine inhibition constants (K), compounds were diluted serially in DMSO and added to 50 μL kinase reactions containing purified enzyme (1.5 nM JAK1, or 0.2 nM JAK2), 100 mM HEPES buffer (pH 7.2), 0.015% Brij-35, 1.5 μM peptide substrate, ATP (25 μM), 10 mM MgCl2, 4 mM DTT at a final DMSO concentration of 2%.
(§3) Reactions were incubated at 22° C. in 384-well polypropylene microtiter plates for 30 minutes and then stopped by addition of 25 µL of an EDTA containing solution (100 mM HEPES buffer (pH 7.2), 0.015% Brij-35, 150 mM EDTA), resulting in a final EDTA concentration of 50 mM. After termination of the kinase reaction, the proportion of phosphorylated product was determined as a fraction of total peptide substrate using the Caliper LabChip® 3000 according to the manufacturer's specifications. K values were then determined using the Morrison tight binding model (Morrison, J. F., Biochim. Biophys. Acta. 185:269-296 (1969); William, J. W. and Morrison, J. F., Meth. Enzymol., 63:437-467 (1979)) modified for ATP-competitive inhibition [Ki=Ki, app/(1+[ATP]/Km,app)].

Assay [2] addresses T2, isolated recombinant JAK2 kinase domain (Homo sapiens, UniProt O60674).
T2 construct: isolated recombinant JAK1 and JAK2 kinase domain
In words: JAK enzyme assay, JAK2 kinase domain (Caliper LabChip). Type of assay: biochemical. To be noted: 0.2 nM JAK2, ATP 25 μM, Morrison tight binding model. The procedure: as §1, §2, §3

Assay [3] has as its system JAK1-dependent STAT6 phosphorylation downstream of IL-13 stimulation, BEAS-2B human bronchial epithelial cells. In words: JAK1 pathway assay in cell lines: IL-13 stimulated STAT6 phosphorylation in BEAS-2B cells (MSD). It counts as cell-based. The settings on record: IL-13 stimulation 15 min at EC90, read-out: IL-13 p-STAT6 BEAS-2B IC50. The procedure:
JAK1 Pathway Assay in Cell Lines was Carried Out as Follows:
Inhibitor potency (EC50) was determined in cell-based assays designed to measure JAK1 dependent STAT phosphorylation. As noted above, inhibition of IL-4, IL-13, and IL-9 signaling by blocking the Jak/Stat signaling pathway can alleviate asthmatic symptoms in pre-clinical lung inflammation models (Mathew et al., 2001, J Exp Med 193(9): 1087-1096; Kudlacz et. al., 2008, Eur J. Pharmacol 582(1-3): 154-161).
In one assay approach, TF-1 human erythroleukemia cells obtained from the American Type Culture Collection (ATCC; Manassas, Va.) were used to measure JAK1-dependent STAT6 phosphorylation downstream of IL-13 stimulation. Prior to use in the assays, TF-1 cells were starved of GM-CSF overnight in OptiMEM medium (Life Technologies, Grand Island, N.Y.) supplemented with 0.5% charcoal/dextran stripped fetal bovine serum (FBS), 0.1 mM non-essential amino acids (NEAA), and 1 mM sodium pyruvate. The assays were run in 384-well plates in serum-free OptiMEM medium using 300,000 cells per well. In a second assay approach, BEAS-2B human bronchial epithelial cells obtained from ATCC were plated at 100,000 cells per well of a 96-well plate one day prior to the experiment. The BEAS-2B assay was run in complete growth medium (bronchial epithelial basal medium plus bulletkit; Lonza; Basel, Switzerland).
Test compounds were serially diluted 1:2 in DMSO and then diluted 1:50 in medium just before use. Diluted compounds were added to the cells, for a final DMSO concentration of […], and incubated for 30 m (for the TF-1 assay) or […] (for the BEAS-2B assay) at 37° C. Then, cells were stimulated with human recombinant cytokine at their respective EC90 concentrations, as previously determined for each individual lot. Cells were stimulated with IL-13 (R&D Systems, Minneapolis, Minn.) for 15 min at 37° C. The TF-1 cell reactions were stopped by the direct addition of 10× lysis buffer (Cell Signaling Technologies, Danvers, Mass.), whereas the BEAS-2B cell incubations were halted by the removal of medium and addition of 1× lysis buffer. The resultant samples were frozen in the plates at −80° C. Compound mediated inhibition of STAT6 phosphorylation was measured in the cell lysates using MesoScale Discovery (MSD) technology (Gaithersburg, Md.).

SMILES strings stand for the structures. Where two headings read alike, the source gives them in different places.

T2 sequence (O60674 849-1124 limits assumed): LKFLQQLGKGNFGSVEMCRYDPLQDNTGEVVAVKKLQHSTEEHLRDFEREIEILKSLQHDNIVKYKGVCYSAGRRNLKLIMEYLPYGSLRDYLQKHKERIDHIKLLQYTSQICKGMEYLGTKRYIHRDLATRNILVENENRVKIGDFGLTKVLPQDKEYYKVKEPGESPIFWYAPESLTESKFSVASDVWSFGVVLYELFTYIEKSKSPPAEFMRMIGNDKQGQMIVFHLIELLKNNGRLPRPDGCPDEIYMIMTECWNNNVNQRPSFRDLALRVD
T1 sequence (P23458 875-1153 limits assumed): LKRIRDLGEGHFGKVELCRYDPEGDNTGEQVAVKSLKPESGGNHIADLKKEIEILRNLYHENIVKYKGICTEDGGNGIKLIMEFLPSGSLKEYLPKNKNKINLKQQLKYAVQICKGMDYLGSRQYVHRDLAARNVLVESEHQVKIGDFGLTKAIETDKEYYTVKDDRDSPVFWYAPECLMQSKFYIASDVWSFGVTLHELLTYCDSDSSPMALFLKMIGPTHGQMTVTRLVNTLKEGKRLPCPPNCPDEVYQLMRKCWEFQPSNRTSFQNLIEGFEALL

As for `CN1CCC(n2cc(NC(=O)c3cnn4cccnc34)c(-c3cc(OC(F)F)ccc3OC(F)F)n2)C1=O` (single isomer, unassigned) [Example 9, N-[3-[2,5-bis(difluoromethoxy)phenyl]-1-(1-methyl-2-oxo-pyrrolidin-3-yl)pyrazol-4-yl]pyrazolo[1,5-a]pyrimidine-3-carboxamide], the Ki – broadly, a dissociation constant, usually derived from enzyme kinetics or from competition with a known ligand – in assay [1] was found to be 2.1 nM; in assay [2] it was 1.1 nM. Besides, the IC50 (in general, the concentration at which inhibition is half-maximal) in assay [3] was 67 nM.

On to `CN1CCC(n2cc(NC(=O)c3cnn4cccnc34)c(-c3cc4c(cc3OC(F)F)NCCO4)n2)C1=O` (single isomer, unassigned) [Example 10, N-[3-[6-(difluoromethoxy)-3,4-dihydro-2H-1,4-benzoxazin-7-yl]-1-(1-methyl-2-oxo-pyrrolidin-3-yl)pyrazol-4-yl]pyrazolo[1,5-a]pyrimidine-3-carboxamide], for which the Ki worked out at 0.37 nM in assay [1] and 0.58 nM in assay [2]. Moreover, the IC50 in assay [3] (Homo sapiens, BEAS-2B, […]) was 190 nM.

Take `CN1CCC(n2cc(NC(=O)c3cnn4cccnc34)c(-c3cc4c(cc3OC(F)F)NCCO4)n2)C1=O` (single isomer, unassigned) [Example 11, N-[3-[6-(difluoromethoxy)-3,4-dihydro-2H-1,4-benzoxazin-7-yl]-1-(1-methyl-2-oxo-pyrrolidin-3-yl)pyrazol-4-yl]pyrazolo[1,5-a]pyrimidine-3-carboxamide]: the values for the Ki in assay [1] and in assay [2] were 1.2 nM and 0.5 nM, respectively. Further, the IC50 in assay [3] was determined as 230 nM.

In the case of `CN1CCC(n2cc(NC(=O)c3cnn4cccnc34)c(-c3cc4c(cc3OC(F)F)NCCS4)n2)C1=O` (single isomer, unassigned) [Example 13, N-[3-[6-(difluoromethoxy)-3,4-dihydro-2H-1,4-benzothiazin-7-yl]-1-(1-methyl-2-oxo-pyrrolidin-3-yl)pyrazol-4-yl]pyrazolo[1,5-a]pyrimidine-3-carboxamide], the Ki in assay [1] is 0.88 nM; in assay [2], 0.43 nM. In assay [3], the half-maximal inhibitory concentration (IC50) was determined as 290 nM.

Turning to `O=C(Nc1cn(C2CCN(CCN3CCOCC3)C2=O)nc1-c1cc(Cl)ccc1OC(F)F)c1cnn2cccnc12` (single isomer, unassigned) [Example 14, N-[3-[5-chloro-2-(difluoromethoxy)phenyl]-1-[1-(2-morpholinoethyl)-2-oxo-pyrrolidin-3-yl]pyrazol-4-yl]pyrazolo[1,5-a] pyrimidine-3-carboxamide], the inhibition constant (Ki) in assay [1] was 1.2 nM; in assay [2], 1.4 nM. Moreover, the IC50 in assay [3] (Homo sapiens, BEAS-2B, […]) turned out to be 79 nM.

As for `CN1CCN(C(=O)CN2CCC(n3cc(NC(=O)c4cnn5cccnc45)c(-c4cc(Cl)ccc4OC(F)F)n3)C2=O)CC1` (single isomer, unassigned) [Example 16, N-[3-[5-chloro-2-(difluoromethoxy)phenyl]-1-[1-[2-(4-methylpiperazin-1-yl)-2-oxo-ethyl]-2-oxo-pyrrolidin-3-yl]pyrazol-4-yl]pyrazolo[1,5-a]pyrimidine-3-carboxamide], the inhibitory constant (Ki) was determined as 2.8 nM in assay [1] and 0.68 nM in assay [2]. Moreover, in assay [3] (Homo sapiens, BEAS-2B, […]), the IC50 stood at 200 nM.

Consider `CN1CCN(C(=O)CN2CCC(n3cc(NC(=O)c4cnn5cccnc45)c(-c4cc(Cl)ccc4OC(F)F)n3)C2=O)CC1` (single isomer, unassigned) [Example 17, N-[3-[5-chloro-2-(difluoromethoxy)phenyl]-1-[1-[2-(4-methylpiperazin-1-yl)-2-oxo-ethyl]-2-oxo-pyrrolidin-3-yl]pyrazol-4-yl]pyrazolo[1,5-a]pyrimidine-3-carboxamide], for which the inhibition constant (Ki) in assay [1] was 2.6 nM; in assay [2], 1.5 nM. Moreover, the IC50 in assay [3] stood at 300 nM.

Regarding `CN1CCC(n2cc(NC(=O)c3cnn4cccnc34)c(-c3cc(SC(F)F)ccc3OC(F)F)n2)C1=O` (single isomer, unassigned) [Example 18, N-[3-[2-(difluoromethoxy)-5-(difluoromethyl-sulfanyl)phenyl]-1-(1-methyl-2-oxo-pyrrolidin-3-yl)pyrazol-4-yl]pyrazolo[1,5-a]pyrimidine-3-carboxamide], the inhibition constant Ki in assay [1] is 0.28 nM; in assay [2], 0.39 nM. For the same molecule, the IC50 in assay [3] was found to be 15 nM.

`CN1CCC(n2cc(NC(=O)c3cnn4cccnc34)c(-c3cc(SC(F)F)ccc3OC(F)F)n2)C1=O` (single isomer, unassigned) [Example 19, N-[3-[2-(difluoromethoxy)-5-(difluoromethyl-sulfanyl)phenyl]-1-(1-methyl-2-oxo-pyrrolidin-3-yl)pyrazol-4-yl]pyrazolo[1,5-a]pyrimidine-3-carboxamide]: the Ki is 2.5 nM in assay [1] and 0.55 nM in assay [2]. Also, the concentration for half-maximal inhibition (IC50) in assay [3] was 59 nM.

In the case of `CN1CCCC(n2cc(NC(=O)c3cnn4cccnc34)c(-c3cc(Cl)ccc3OC(F)F)n2)C1=O` (single isomer, unassigned) [Example 20, N-[3-[5-chloro-2-(difluoromethoxy)phenyl]-1-(1-methyl-2-oxo-3-piperidyl)pyrazol-4-yl]pyrazolo[1,5-a]pyrimidine-3-carboxamide], the Ki was 0.48 nM in assay [1] and 1.5 nM in assay [2]. Besides, the IC50 in assay [3] is 24 nM.

Take `CN1CCCC(n2cc(NC(=O)c3cnn4cccnc34)c(-c3cc(Cl)ccc3OC(F)F)n2)C1=O` (single isomer, unassigned) [Example 21, N-[3-[5-chloro-2-(difluoromethoxy)phenyl]-1-(1-methyl-2-oxo-3-piperidyl)pyrazol-4-yl]pyrazolo[1,5-a]pyrimidine-3-carboxamide]: the Ki in assay [1] stood at 4.1 nM; in assay [2] it was 2.1 nM. Besides, in assay [3], the 50% inhibitory concentration (IC50) came out at 74 nM.

Take `O=C(Nc1cn(C2CCN(C3COC3)C2=O)nc1-c1cc(Cl)ccc1OC(F)F)c1cnn2cccnc12` (single isomer, unassigned) [Example 23, N-[3-[5-chloro-2-(difluoromethoxy)phenyl]-1-[1-(oxetan-3-yl)-2-oxo-pyrrolidin-3-yl]pyrazol-4-yl]pyrazolo[1,5-a]pyrimidine-3-carboxamide]: the figures for the Ki in assay [1] and in assay [2] were 0.51 nM and 0.54 nM, respectively. The IC50 in assay [3] was 23 nM.

For `O=C(Nc1cn(C2CCN(C3COC3)C2=O)nc1-c1cc(Cl)ccc1OC(F)F)c1cnn2cccnc12` (single isomer, unassigned) [Example 24, N-[3-[5-chloro-2-(difluoromethoxy)phenyl]-1-[1-(oxetan-3-yl)-2-oxo-pyrrolidin-3-yl]pyrazol-4-yl]pyrazolo[1,5-a]pyrimidine-3-carboxamide], the values for the inhibition constant Ki in assay [1] and in assay [2] were 3.9 nM and 0.98 nM, respectively. For the same molecule, the concentration for half-maximal inhibition (IC50) in assay [3] was 57 nM.

Take `O=C(Nc1cn(C2CCOC2=O)nc1-c1cc(Cl)ccc1OC(F)F)c1cnn2cccnc12` (single isomer, unassigned) [Example 27, N-[3-[5-chloro-2-(difluoromethoxy)phenyl]-1-(2-oxotetrahydrofuran-3-yl)pyrazol-4-yl]pyrazolo[1,5-a]pyrimidine-3-carboxamide]: the inhibition constant Ki in assay [1] stood at 0.77 nM; in assay [2], 0.5 nM. Also, the IC50 in assay [3] came out at 24 nM.
